Molecular target: T1, Dual specificity protein phosphatase 6 (Rattus norvegicus, UniProt Q64346)
T1 sequence (Q64346 whole entry): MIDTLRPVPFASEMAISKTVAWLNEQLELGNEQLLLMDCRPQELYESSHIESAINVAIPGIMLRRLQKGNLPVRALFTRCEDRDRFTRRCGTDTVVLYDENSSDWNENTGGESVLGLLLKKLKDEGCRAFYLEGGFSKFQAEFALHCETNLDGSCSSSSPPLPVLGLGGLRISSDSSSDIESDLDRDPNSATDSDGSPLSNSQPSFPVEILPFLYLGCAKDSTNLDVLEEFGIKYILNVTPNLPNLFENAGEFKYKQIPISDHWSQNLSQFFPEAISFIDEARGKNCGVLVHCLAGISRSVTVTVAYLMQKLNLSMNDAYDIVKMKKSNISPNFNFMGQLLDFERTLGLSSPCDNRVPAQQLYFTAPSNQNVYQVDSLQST
Experiment: MKP-3 phosphatase inhibitors, SAR follow-up, biochemical (AID 1055)
Conditions: pH 7; 23 °C

Compound: Cc1ccc2c(c1)C1C=CCC1C(C(=O)O)N2 (stereo unspecified) [MLS-0067149.0001]
- IC50: 7.9 µM
